Experimental data from patent publication US11529328B2, “Formulations for pharmaceutical agents” (The Curators of the University of Missouri, priority 2019, dated 2022).
pIC50: −log10 of the molar value. Converted amounts (≈) assume the structure as drawn.

How the values were obtained:
MCF-10A = assay: MTS cell viability / cytotoxicity on normal MCF-10A cells; type: cell-based, human; settings: 1% v/v
DU-145 = settings: exposure time period of 72; previous study; read-out: reported IC50 of DXT; cited from earlier work
[1] = deionized-water; cited from earlier work
[2] = cited from earlier work

| Compound | cytotoxicity of positive control (MCF-10A) | pIC50 (DU-145) | solubility [1] [µg/mL] | log P [2] |
| --- | --- | --- | --- | --- |
| Triton X | strongly cytotoxic |  |  |  |
| CC(=O)O[C@@]12CO[C@@H]1C[C@H](O)[C@@]1(C)C(=O)[C@H](O)C3=C(C)[C@@H](OC(=O)[C@H](O)[C@@H](NC(=O)OC(C)(C)C)c4ccccc4)C[C@@](O)([C@@H](OC(=O)c4ccccc4)[C@H]21)C3(C)C [native DXT, Docetaxel] |  | 8.09 | 11.75 (≈ 14.5 µM) | 4.1 |
